Measurements as given in patent publication US20070275382A1, “Biomarkers for the Efficacy of Somatostatin Analogue Treatment” (priority 2003, published 2007).
*1 amine or outer side, *2 acyl side, *3 side chain or, on linkers, in order; H or OH if unused. Where a SMILES comes first, the peptide text is derived from it. Side-chain parts run from the residue outwards. [ ]: non-standard residue; d: D form. The star is where a group is joined. Ethylenediamine = C(CN[*:2])N[*:1]; Hyp = O=C(O)[CH]1C[CH](O)CN1; Phg = N[CH](C(=O)O)c1ccccc1; CO = O=C([*:1])[*:2]; Bn = c1ccc(C*)cc1

Tested on: Pituitary gland
Experiment: Microarray gene expression profiling (HG-U95A), pituitary
Type: in vivo, cynomolgus monkeys
Conditions: 100 μg/animal/day s.c., 14 days
Procedure: Origin of tissue and processing. Male and female cynomolgus monkeys received subcutaneously pasireotide (100 μg/animal/day) or the vehicle for 14 days. On day 15, all animals were sacrificed and tissues for RNA extraction were immediately snap-frozen and kept at −80° C. until processing.
RNA expression profiling was conducted by means of the HG-U95A gene expression probe array (Affymetrix; Santa Clara, Calif. USA), containing more than 12,600 probe sets interrogating primarily full-length human genes and also some control probe sets. The experiment was conducted according to the recommendations of the manufacturer. Briefly, total RNA was obtained by acid guanidinium thiocyanate-phenol-chloroform extraction (Trizol®, Invitrogen Life Technologies, San Diego, Calif. USA) from each frozen tissue section. The total RNA was then purified on an affinity resin (Rneasy®, Qiagen) and quantified. Double stranded cDNA was synthesized with a starting amount of approximately 5 μg full-length total RNA using the Superscript® Choice System (Invitrogen Life Technologies, Carlsbad, Calif. USA) in the presence of a T7-(dT)24 DNA oligonucleotide primer. Following synthesis, the cDNA was purified by phenol/chloroform/isoamyl alcohol extraction and ethanol precipitation. The purified cDNA was then transcribed in vitro using the BioArray® High Yield RNA Transcript Labeling Kit (ENZO, Farmingdale, N.Y. USA) in the presence of biotinylated ribonucleotides form biotin labelled cRNA. The labelled cRNA was then purified on an affinity resin (Rneasy®, Qiagen), quantified and fragmented. An amount of approximately 10 μg labelled cRNA was hybridized for 16 hours at 45° C. to an expression probe array. The array was then washed and stained twice with streptavidin-phycoerythrin (Molecular Probes,) using the GeneChip® Fluidics Workstation 400 (Affymetrix, Santa Clara, Calif. USA). The array was then scanned twice using a confocal laser scanner (GeneArray® Scanner, Agilent, Palo Alto, Calif. USA) resulting in one scanned image. This resulting “.dat-file” was processed using the MAS4 program (Affymetrix) into a “.cel-file”. The “.cel file” was captured and loaded into the Affymetrix GeneChip® Laboratory Information Management System (LIMS). The LIMS database is connected to a UNIX Sun Solaris server through a network filing system that allows for the average intensities for all probes cells (CEL file) to be downloaded into an Oracle database (NPGN). Raw data was converted to expression levels using a “target intensity” of 150. The data were evaluated for quality control and loaded in the GeneSpring® software 4.2.4 (Silicon Genetics, Calif. USA) for analysis.
On the human Affymetrix HGU95Av2 chip, probe sets for individual genes contain 20 oligonucleotide pairs, each composed of a “perfect match” 25-mer and a “mismatch” 25-mer differing from the “perfect” match oligonucleotide at a single base. After probe labelling, hybridization, and laser scanning, the expression level was estimated by averaging the differences in signal intensity measured by oligonucleotide pairs of a given probe (AvgDiff value). The fold changes and directions were calculated for selected genes, from the differences of the AvgDiff values between controls and treated.
To identify genes that were impacted by pasireotide, the dataset was initially filtered to exclude in a first wave of analysis, genes whose values were systematically in the lower expression ranges where the experimental noise is high (at least 80 in a number of experiments corresponding to the smallest number of replicas of any experimental point). In a second round of selection a threshold p-value of 0.05 (based on a t-test) identified differences between treated and control based on a two component error model (Global Error Model) and, whenever possible, with a stepdown correction for multi-hypothesis testing (Benjamini and Hochberg false discovery rate). […]

## NCCCCC1NC(=O)C(Cc2c[nH]c3ccccc23)NC(=O)C(c2ccccc2)NC(=O)C2CC(OC(=O)NCCN)CN2C(=O)C(Cc2ccccc2)NC(=O)C(Cc2ccc(OCc3ccccc3)cc2)NC1=O (stereo not drawn) [Pasireotide, cyclo[4-(NH2—C2H4—NH—CO—O)Pro-Phg-DTrp-Lys-Tyr(4-Bzl)-Phe]] (cyclo(F[Hyp]([CO-Ethylenediamine])[Phg]WKY(Bn)); configuration not given here)
↑ vs control
  GFR bound protein 10 transcript fold change: ↑ x1.5
  GLUR 2, precursor transcript fold change: ↑ x1.5
  GTP-binding protein 11 transcript fold change: 11 ↑ x2.5
  Glucagon receptor transcript fold change: ↑ x7
  IFN stimulated gene transcript fold change: ↑ x3.5
  IFNγ-inducible protein 30 (IP30) transcript fold change: 30 (IP30) ↑ x1.5
  IGFBP, acid labile subunit transcript fold change: subunit ↑ x3.5
  IP3 receptor, type 1 transcript fold change: ↑ x1.5
  JAK 1 transcript fold change: JAK 1 ↑ x2
  MAPKKK5 transcript fold change: MAPKKK5 ↑ x2
  Neuroblastoma-amplified protein transcript fold change: ↑ x1.5
  PKC inhibitor transcript fold change: PKC inhibitor ↑ x2
  PP 1, regulatory (inhibitor) subunit 5 transcript fold change: ↑ x3.5
  PTP, receptor type, T transcript fold change: ↑ x2
  Programmed cell death 6 transcript fold change: death 6 ↑ x1.5
  Putative Ca++ transporting ATPase transcript fold change: ↑ x2
  RAB 5C, member RAS oncogene family transcript fold change: ↑ x3
  Rab geranyltransferase, β subunit transcript fold change: β subunit ↑ x2
  Receptor (calcitonin) activity modifying protein 2 precursor transcript fold change: x3.5
  Receptor tyrosine kinase-like orphan receptor 2 transcript fold change: receptor 2 ↑ x2
  Regulator of G-protein signalling 9 transcript fold change: ↑ x2
  S-phase response (cyclin-related) transcript fold change: (cyclin-related) ↑ x2
  SSTR3 transcript fold change: SSTR3 ↑ x3
  Thyroid transcription factor 1 transcript fold change: factor 1 ↑ x2.5
  VEGF B transcript fold change: VEGF B ↑ x1.5
↓ vs control
  1-PI-4-phosphate 5-kinase isoform C transcript fold change: kinase isoform C ↓ x1.5
  ATPase, H+/K+ exchanging, α polypeptide transcript fold change: polypeptide ↓ x5
  Arg PTK-binding protein transcript fold change: protein ↓ x2.5
  CD36 antigen transcript fold change: CD36 antigen ↓ x2
  Catenin (cadherin-associated protein), α 1 (102 kD) transcript fold change: α 1 (102 kD) ↓ x1.5
  Cholecystokinin receptor transcript fold change: receptor ↓ x4.5
  Cholinergic receptor, muscarinic 3 transcript fold change: muscarinic 3 ↓ x3
  Cholinergic receptor, nicotinic, β polypeptide 4 transcript fold change: 4 ↓ x2
  Cyclin F transcript fold change: Cyclin F ↓ x2
  Dual specificity phosphatase 8 transcript fold change: phosphatase 8 ↓ x3
  EGFRBP 2 transcript fold change: EGFRBP 2 ↓ x1.5
  FGFR 2 transcript fold change: FGFR 2 ↓ x2
  Fms-related tyrosine kinase 1 (VEGF/vascular permeability factor receptor) transcript fold change: receptor) ↓ x1.5
  Forkhead box O3A transcript fold change: ↓ x1.5
  G-protein coupled receptor 49 transcript fold change: receptor 49 ↓ x2
  GTP-binding protein (G protein), q polypeptide transcript fold change: ↓ x2.5
  GTP-binding protein like-1 transcript fold change: like-1 ↓ x3
  Gastrin receptor transcript fold change: Gastrin receptor ↓ x2
  IFNR2 (α, β and ω) transcript fold change: ↓ x2.5
  IGF-2 transcript fold change: IGF-2 ↓ x1.5
  IP-4-phosphatase, type 1, isoform b transcript fold change: type 1, isoform b ↓ x2
  K+ channel, subfamily K, member 3 (TASK) transcript fold change: ↓ x4
  K+ voltage-gated channel, Shab-related subfamily, member 1 transcript fold change: ↓ x2
  PDGFβ transcript fold change: PDGFβ ↓ x2
  PI transfer protein, β transcript fold change: ↓ x2.5
  PI-3-kinase, catalytic, α polypeptide transcript fold change: α polypeptide ↓ x3
  PI-3-kinase, catalytic, δ polypeptide transcript fold change: ↓ x2
  PLCγ 1 transcript fold change: PLCγ 1 ↓ x1.5
  Phosphatase and tensin homolog (mutated in multiple advanced cancers 1) transcript fold change: ↓ x3.5
  Rab3 GTPase-activating protein, non catalytic subunit transcript fold change: catalytic subunit ↓ x2
  Rab geranylgeranyl transferase, α subunit transcript fold change: ↓ x1.5
  SHB adaptor protein (a Src homology 2 protein) transcript fold change: ↓ x2.5
  STAT 1, 91kδ transcript fold change: STAT 1, 91kδ ↓ x2
  Soluble adenylyl cyclase transcript fold change: cyclase ↓ x2
  TNFR subfamily, member 14; herpesvirus entry mediator transcript fold change: entry mediator ↓ x2.5
  TNFR-associated factor 2 transcript fold change: factor 2 ↓ x4
  Thrombospondin-p50 transcript fold change: ↓ x2
